Measured values published in the supplement of paper PMC12463676, “Small-molecule dissolution of stress granules by redox modulation benefits ALS models” (Nature Chemical Biology, 2025).

Key:
[1] = compound: O=[As]([O-])(O)O.[K+] [potassium arsenate]; experiment: thermal stability z-score vs DMSO; higher = more thermally stabilized by treatment; conditions: HeLa; arsenate concentration 1 mM
Method: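 Cellular thermal proteome profiling in HeLa cells treated with 1 mM arsenate for 1 h (DMSO pretreatment), heated to ten temperatures (37-66.3 °C). Soluble protein was quantified by TMT mass spectrometry relative to DMSO controls; the thermal stability score was transformed to a z-score; mean of n = 3 experiments.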

[2] = compound: NC(=O)CCCCC1CCSS1 [lipoamide]; experiment: as above; conditions: HeLa, lipoamide concentration 100 µM
Method: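 Cellular thermal proteome profiling in HeLa cells. Cells were treated with 100 µM lipoamide for 1 h, with or without 1 mM arsenate for a further 1 h, then heated to ten temperatures (37-66.3 °C), and soluble protein was quantified by TMT mass spectrometry relative to 0.1% DMSO controls. The thermal stability score (sum of log2 fold changes minus the abundance score) was transformed to a z-score; mean of n = 3 experiments.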

[3] = arsenate co-treatment: 1 mM arsenate 1 h
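Further: each temperature applied for 3 min, abundance score taken as mean log2 fold change at the two lowest temperatures, z-score obtained by mean subtraction and division by SD.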

UniProt O14777, sequence (O14777 whole entry): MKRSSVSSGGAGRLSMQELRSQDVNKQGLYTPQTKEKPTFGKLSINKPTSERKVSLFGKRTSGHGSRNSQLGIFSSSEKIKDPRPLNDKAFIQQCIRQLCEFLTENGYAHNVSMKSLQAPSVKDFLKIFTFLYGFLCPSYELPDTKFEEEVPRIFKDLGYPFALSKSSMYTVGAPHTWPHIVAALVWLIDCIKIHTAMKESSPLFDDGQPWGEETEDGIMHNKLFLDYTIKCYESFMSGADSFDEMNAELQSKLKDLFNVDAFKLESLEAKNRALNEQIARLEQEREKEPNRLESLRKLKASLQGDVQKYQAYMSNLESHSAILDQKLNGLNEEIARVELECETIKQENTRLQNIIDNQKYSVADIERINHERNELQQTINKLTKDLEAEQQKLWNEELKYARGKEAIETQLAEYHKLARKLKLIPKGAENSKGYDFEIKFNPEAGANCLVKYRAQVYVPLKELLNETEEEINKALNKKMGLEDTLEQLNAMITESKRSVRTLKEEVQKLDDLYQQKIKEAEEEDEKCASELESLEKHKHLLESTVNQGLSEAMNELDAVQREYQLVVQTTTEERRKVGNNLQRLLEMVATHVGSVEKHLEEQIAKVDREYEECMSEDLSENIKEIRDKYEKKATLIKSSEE
UniProt O43676, sequence (O43676 whole entry): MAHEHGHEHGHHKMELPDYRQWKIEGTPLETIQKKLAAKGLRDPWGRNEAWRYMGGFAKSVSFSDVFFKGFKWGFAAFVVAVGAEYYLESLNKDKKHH
UniProt P52298, sequence (P52298 whole entry): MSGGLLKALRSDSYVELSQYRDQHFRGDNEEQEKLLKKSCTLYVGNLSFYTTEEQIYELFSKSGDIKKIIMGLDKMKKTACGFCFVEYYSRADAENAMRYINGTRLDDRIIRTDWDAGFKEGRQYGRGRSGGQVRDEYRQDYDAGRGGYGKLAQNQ
UniProt Q9UBB6, sequence (Q9UBB6 whole entry): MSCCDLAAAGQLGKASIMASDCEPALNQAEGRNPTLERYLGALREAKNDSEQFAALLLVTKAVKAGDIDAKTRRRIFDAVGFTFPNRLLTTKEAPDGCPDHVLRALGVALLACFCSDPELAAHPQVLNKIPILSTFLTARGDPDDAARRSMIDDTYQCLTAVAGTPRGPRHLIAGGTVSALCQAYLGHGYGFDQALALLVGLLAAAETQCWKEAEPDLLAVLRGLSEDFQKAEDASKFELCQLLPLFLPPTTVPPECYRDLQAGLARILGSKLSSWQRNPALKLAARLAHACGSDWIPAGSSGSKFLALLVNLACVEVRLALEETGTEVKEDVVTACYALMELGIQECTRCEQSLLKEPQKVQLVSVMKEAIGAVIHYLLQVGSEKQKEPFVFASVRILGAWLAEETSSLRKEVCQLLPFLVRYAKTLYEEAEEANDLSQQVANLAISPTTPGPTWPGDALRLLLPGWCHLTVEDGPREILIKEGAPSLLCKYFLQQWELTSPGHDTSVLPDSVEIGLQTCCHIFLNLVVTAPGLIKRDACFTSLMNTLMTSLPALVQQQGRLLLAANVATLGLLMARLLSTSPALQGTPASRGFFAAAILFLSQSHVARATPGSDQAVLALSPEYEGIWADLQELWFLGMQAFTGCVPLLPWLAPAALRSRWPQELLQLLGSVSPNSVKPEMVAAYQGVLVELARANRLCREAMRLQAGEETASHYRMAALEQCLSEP
UniProt Q6IBW4, sequence (Q6IBW4 whole entry): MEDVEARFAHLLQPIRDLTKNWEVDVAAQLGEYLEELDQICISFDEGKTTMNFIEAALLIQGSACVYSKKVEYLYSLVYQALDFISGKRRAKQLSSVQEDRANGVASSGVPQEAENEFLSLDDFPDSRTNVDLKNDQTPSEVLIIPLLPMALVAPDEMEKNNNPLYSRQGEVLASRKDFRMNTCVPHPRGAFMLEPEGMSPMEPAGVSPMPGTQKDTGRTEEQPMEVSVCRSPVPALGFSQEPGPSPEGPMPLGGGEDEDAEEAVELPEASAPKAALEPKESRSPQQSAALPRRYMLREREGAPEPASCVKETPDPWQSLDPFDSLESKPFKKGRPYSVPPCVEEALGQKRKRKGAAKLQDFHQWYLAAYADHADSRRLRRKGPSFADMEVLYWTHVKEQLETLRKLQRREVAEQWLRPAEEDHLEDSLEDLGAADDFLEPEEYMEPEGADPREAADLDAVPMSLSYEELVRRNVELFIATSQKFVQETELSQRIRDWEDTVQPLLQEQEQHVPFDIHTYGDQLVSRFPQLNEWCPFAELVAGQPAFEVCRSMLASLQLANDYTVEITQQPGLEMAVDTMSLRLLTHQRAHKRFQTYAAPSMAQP
UniProt Q9BU61, sequence (Q9BU61 whole entry): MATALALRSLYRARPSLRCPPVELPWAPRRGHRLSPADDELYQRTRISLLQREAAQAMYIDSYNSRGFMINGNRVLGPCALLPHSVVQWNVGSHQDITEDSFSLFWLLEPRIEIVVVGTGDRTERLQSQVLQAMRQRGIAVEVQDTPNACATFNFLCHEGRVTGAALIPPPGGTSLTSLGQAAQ
UniProt Q9BTX1, sequence (Q9BTX1 whole entry): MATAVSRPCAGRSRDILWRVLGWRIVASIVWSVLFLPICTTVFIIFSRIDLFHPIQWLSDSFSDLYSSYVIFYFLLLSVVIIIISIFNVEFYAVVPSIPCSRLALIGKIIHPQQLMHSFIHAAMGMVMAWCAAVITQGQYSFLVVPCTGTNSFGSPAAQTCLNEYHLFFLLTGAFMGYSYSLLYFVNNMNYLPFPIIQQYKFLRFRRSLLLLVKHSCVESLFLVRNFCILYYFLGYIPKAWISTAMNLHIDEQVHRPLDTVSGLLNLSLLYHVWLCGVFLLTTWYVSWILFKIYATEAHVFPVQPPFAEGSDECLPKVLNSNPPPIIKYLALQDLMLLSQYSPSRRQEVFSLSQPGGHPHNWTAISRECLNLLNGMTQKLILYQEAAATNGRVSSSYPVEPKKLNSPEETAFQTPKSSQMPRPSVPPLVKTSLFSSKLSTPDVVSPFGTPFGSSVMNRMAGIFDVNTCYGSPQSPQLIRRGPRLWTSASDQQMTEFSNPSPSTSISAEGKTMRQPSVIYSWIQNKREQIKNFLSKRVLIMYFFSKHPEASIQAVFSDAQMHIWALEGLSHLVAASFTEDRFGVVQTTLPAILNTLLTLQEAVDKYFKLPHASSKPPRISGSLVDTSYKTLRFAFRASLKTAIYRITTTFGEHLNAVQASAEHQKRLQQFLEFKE
UniProt Q92542, sequence (Q92542 whole entry): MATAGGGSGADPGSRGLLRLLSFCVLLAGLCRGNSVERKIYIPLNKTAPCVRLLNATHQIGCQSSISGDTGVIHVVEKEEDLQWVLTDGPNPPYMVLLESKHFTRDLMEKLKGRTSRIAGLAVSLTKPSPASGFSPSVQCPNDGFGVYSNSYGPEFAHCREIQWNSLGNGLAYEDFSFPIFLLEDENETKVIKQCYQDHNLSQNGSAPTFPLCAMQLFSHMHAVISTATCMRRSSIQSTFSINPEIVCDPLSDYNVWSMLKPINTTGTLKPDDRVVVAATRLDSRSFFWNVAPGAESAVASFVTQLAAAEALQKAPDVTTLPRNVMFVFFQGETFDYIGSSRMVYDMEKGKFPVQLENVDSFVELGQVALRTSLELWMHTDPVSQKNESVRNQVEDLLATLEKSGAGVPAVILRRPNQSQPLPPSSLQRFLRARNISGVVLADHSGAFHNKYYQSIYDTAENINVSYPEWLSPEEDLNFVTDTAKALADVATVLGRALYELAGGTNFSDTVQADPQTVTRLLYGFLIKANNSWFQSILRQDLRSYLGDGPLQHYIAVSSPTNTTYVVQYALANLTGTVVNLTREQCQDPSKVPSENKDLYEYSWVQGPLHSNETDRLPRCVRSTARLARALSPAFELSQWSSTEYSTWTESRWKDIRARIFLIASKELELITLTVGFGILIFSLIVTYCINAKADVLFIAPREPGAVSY
UniProt Q8N183, sequence (Q8N183 whole entry): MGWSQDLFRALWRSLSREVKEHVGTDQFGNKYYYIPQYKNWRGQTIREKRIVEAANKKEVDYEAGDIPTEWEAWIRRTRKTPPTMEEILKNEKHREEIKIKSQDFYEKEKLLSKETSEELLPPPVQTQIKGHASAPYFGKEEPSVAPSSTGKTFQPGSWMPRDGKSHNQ
UniProt P56556, sequence (P56556 whole entry): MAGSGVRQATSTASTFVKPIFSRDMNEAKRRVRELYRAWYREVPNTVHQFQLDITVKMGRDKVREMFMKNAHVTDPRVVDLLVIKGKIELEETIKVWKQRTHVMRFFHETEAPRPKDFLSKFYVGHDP
UniProt Q16795, sequence (Q16795 whole entry): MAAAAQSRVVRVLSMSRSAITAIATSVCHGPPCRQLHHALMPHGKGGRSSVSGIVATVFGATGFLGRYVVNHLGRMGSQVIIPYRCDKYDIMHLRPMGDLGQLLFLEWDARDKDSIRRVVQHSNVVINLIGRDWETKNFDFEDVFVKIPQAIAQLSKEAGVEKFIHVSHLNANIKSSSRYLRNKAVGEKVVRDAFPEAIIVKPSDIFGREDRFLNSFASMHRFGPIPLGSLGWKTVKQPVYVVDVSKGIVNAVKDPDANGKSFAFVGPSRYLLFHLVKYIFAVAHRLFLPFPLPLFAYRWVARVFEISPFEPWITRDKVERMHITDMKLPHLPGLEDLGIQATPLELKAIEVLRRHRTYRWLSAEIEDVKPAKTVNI
UniProt Q330K2, sequence (Q330K2 whole entry): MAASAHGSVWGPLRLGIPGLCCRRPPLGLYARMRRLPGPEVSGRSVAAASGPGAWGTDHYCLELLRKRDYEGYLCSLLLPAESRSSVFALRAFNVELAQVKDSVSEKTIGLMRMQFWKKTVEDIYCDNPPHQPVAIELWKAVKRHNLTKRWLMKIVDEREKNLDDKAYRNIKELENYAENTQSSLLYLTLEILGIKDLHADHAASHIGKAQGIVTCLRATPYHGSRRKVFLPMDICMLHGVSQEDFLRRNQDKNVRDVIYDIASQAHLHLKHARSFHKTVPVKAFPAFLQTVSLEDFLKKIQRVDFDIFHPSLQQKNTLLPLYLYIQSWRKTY
UniProt O95182, sequence (O95182 whole entry): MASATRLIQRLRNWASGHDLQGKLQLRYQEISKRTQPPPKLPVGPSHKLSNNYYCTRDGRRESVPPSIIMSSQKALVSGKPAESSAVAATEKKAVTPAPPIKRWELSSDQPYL

Target	thermal stability z-score [1]	thermal stability z-score [2, 3]	thermal stability z-score ([2]; arsenate co-treatment: none)
NCAPD2 (UniProt Q15021)	0.369	-0.565	-0.251
NCAPD3 (UniProt P42695)	0.161	0.394	0.105
NCAPG2 (UniProt Q86XI2)	-0.267	-0.00836	-0.0717
NCAPG (UniProt Q9BPX3)	0.883	-0.382	0.295
NCAPH2 (UniProt Q6IBW4)	-0.299	-0.0183	0.00929
NCAPH (UniProt Q15003)	0.387	-1.04	-0.316
NCBP1 (UniProt Q09161)	-0.0646	0.353	0.393
NCBP2 (UniProt P52298)	-0.0118	0.782	0.577
NCDN (UniProt Q9UBB6)	0.288	0.164	-0.266
NCEH1 (UniProt Q6PIU2)	-0.34	-0.5	-0.83
NCK1 (UniProt P16333)	-0.0139	-0.705	-0.905
NCKAP1 (UniProt Q9Y2A7)	-0.938	0.0716	0.602
NCKAP5L (UniProt Q9HCH0)	0.264	-0.000592	0.244
NCKIPSD (UniProt Q9NZQ3)	0.255	0.127	0.0916
NCL (UniProt P19338)	-0.611	0.724	0.77
NCLN (UniProt Q969V3)	0.537	-3.4	-2.85
NCOA2 (UniProt Q15596)	-0.284	-0.239	-0.0592
NCOA3 (UniProt Q9Y6Q9)	-0.26	-0.0145	0.0505
NCOA4 (UniProt Q13772)	-0.116	-0.252	0.00243
NCOA5 (UniProt Q9HCD5)	1.05	1.91	0.857
NCOA7 (UniProt Q8NI08)	0.0655	-0.676	-0.721
NCOR1 (UniProt O75376)	-0.0899	-0.0471	-0.0243
NCOR2 (UniProt Q9Y618)	0.138	0.182	0.227
NCS1 (UniProt P62166)	-0.124	-0.202	-0.195
NCSTN (UniProt Q92542)	-0.207	-0.537	-0.624
NDC1 (UniProt Q9BTX1)	0.177	0.0748	0.0634
NDC80 (UniProt O14777)	1.71	-0.361	0.254
NDE1 (UniProt Q9NXR1)	0.0354	0.584	0.266

Target	thermal stability z-score [1]	thermal stability z-score [2, 3]	thermal stability z-score ([2]; arsenate co-treatment: none)
NDFIP1 (UniProt Q9BT67)	1.41	1.07	0.0758
NDOR1 (UniProt Q9UHB4)	1.08	0.000709	0.487
NDRG1 (UniProt Q92597)	-1.31	-0.311	-0.62
NDRG3 (UniProt Q9UGV2)	-1.65	-0.101	-0.269
NDUFA2 (UniProt O43678)	0.396	-0.29	-0.00199
NDUFA4 (UniProt O00483)	0.532	0.551	0.887
NDUFA5 (UniProt Q16718)	0.101	-0.0074	-0.146
NDUFA6 (UniProt P56556)	0.505	-0.164	-0.00891
NDUFA7 (UniProt O95182)	0.128	0.276	0.141
NDUFA8 (UniProt P51970)	0.0194	-0.418	-0.772
NDUFA9 (UniProt Q16795)	0.475	0.188	0.112
NDUFA10 (UniProt O95299)	-0.167	-0.327	-0.199
NDUFA11 (UniProt Q86Y39)	0.571	0.521	-0.0102
NDUFA12 (UniProt Q9UI09)	0.611	-0.0618	0.06
NDUFAB1 (UniProt O14561)	0.86	1.77	-0.297
NDUFAF1 (UniProt Q9Y375)	-0.0374	-0.593	-0.335
NDUFAF2 (UniProt Q8N183)	0.094	0.429	0.317
NDUFAF3 (UniProt Q9BU61)	-0.147	-0.122	-0.105
NDUFAF4 (UniProt Q9P032)	0.182	-0.153	0.199
NDUFAF5 (UniProt Q5TEU4)	0.155	-0.066	-0.112
NDUFAF6 (UniProt Q330K2)	0.0349	0.234	0.0618
NDUFAF7 (UniProt Q7L592)	0.288	-0.486	-0.171
NDUFB3 (UniProt O43676)	0.36	0.00119	-0.236
NDUFB4 (UniProt O95168)	0.489	0.137	0.173
NDUFB5 (UniProt O43674)	0.226	-0.958	-0.151
NDUFB6 (UniProt O95139)	0.873	0.071	0.306
NDUFB7 (UniProt P17568)	-0.462	-0.619	-0.28
